# Experimental data taken from patent US20240210394A1, “MICROORGANISM CAPTURE FROM ANTIMICROBIAL-CONTAINING SOLUTION” (MOMENTUM BIOSCIENCE LIMITED, priority 2019, published 2024).
# Tested on: S. aureus
# Assay: Blood culture time to positivity (flip time), bead rescue vs no-rescue control
# Assay type: cell-based
# Conditions: for Flip time: Bead rescue; for Flip time in hours/mins: 2 h at 37° C.; for Time to positivity in days: 900 cfu/5 ml
# Description: An overnight culture of test organism was prepared in blood/broth medium (50:50 blood:broth medium from a BioMerieux SA culture bottle).
# Ten-fold serial dilutions of overnight culture was prepared in blood/broth as required.
# Antibiotic (abx) was added to whole human blood (in citrate-phosphate-dextrose, CPD, an anticoagulant) at required level.
# Whole blood was used as the no-antibiotic control.
# Test dilution(s) of organism was added to blood+antibiotic or blood only at 10 μL per mL of blood (sufficient prepared for experiment requirements). 100 μL plate count sample was taken (TO sample).
# The inoculated samples were incubated at 37° C. (static) for 2-hour. 100 μL plate count sample was taken (T2 sample).
# For the control, 5 mL of spiked blood+abx or blood only was added to blood culture bottles (BioMerieux SA culture bottle) using a vial adapter (West Pharmaceutical Services, Inc. PA, US) and incubated in the automated blood culture cabinet (adapter removed).
# For the ‘rescue’ test, 5 mL of spiked blood+abx or blood only was treated with Momentum Capture Beads (Streptavidin-coated, −300 nm beads, Bio estapor, Merk Cat #BE-M 08/0.3) as below: • Momentum Capture Beads diluted in Detergent-free Microbial Binding Buffer (DMBB—Tris+NaCl)—50 μL beads:700 μL DMBB per clean-up • 750 μL of diluted beads added to 50 mL conical centrifuge tube • 5 mL of broth medium added to tube • 5 mL of spiked blood+abx or blood only added to tube • Incubate on ITL TherMix (Integrated Technologies Ltd. Kent, UK), 32.5° C./30 min/1000 rpm—ramped speed protocol • Magnetise on V&P magnet (V&P scientific Inc, CA, US) for 5 min then remove supernatant • Resuspend beads in 1 mL Detergent-free Wash Buffer (DWB—Tris+NaCl) off magnet and transfer to 2 mL Eppendorf flip-top tube on DynaMag-2 magnet (Thermo Fisher Scientific, Life Technologies Ltd. Paisley, UK) • Magnetise for 5 min then remove supernatant • Resuspend beads in 1 mL DWB off magnet then replace on DynaMag-2 magnet • Magnetise for 5 min then remove supernatant • Resuspend beads in 1 mL DWB, add to a fresh, unused blood culture bottle (BioMerieux SA culture bottle) containing standard blood culture growth medium using a vial adapter, and start incubation (adapter removed). • Blood culture bottles are incubated in the automated blood culture cabinet (BacT/ALERT BioMerieux) which records time to positivity. The “Flip” time is when a bottle turns positive as determined by the automated blood culture cabinet. • “Flip” time of each bottle is recorded. • Plate counts (Total Viable Count TVC) are recorded.
# Day 1: Prepare overnight culture of test organism in blood/broth medium (50:50 blood:broth) and incubate at 37° C. in a shaking incubator.
# Day 2: Prepare ten-fold serial dilution of overnight culture in blood/broth as required • Antibiotic added to whole blood (defibrinated horse blood) at required level • Whole blood as no-antibiotic control • Test dilution(s) of organism added to blood+antibiotic or blood only at 10 μL per mL of blood (sufficient prepared for experiment requirements) • 100 μL plate count sample taken (TO sample) • 2-hour incubation at 37° C. (static), to mimic organism exposure to antimicrobials in the patient • 100 μL plate count sample taken (T2 sample) • 5 mL of spiked blood+abx or blood only added to blood culture bottle (using vial adapter) and incubation started (adapter removed) • 5 mL of spiked blood+abx or blood only (from same source) treated with Momentum Capture Beads as below: • 1. Momentum Capture Beads diluted in Detergent-free Microbial Binding Buffer (DMBB)—50 μL beads:700 μL DMBB per clean-up • 2. 750 μL of diluted beads added to 50 mL conical centrifuge tube • 3. 5 mL of transfer medium added to tube • 4. 5 mL of spiked blood+abx or blood only added to tube • 5.
structure (smiles),measurement,setting,value
CCN1CCN(C(=O)N[C@@H](C(=O)N[C@@H]2C(=O)N3[C@@H]2SC(C)(C)[C@@H]3C(=O)O)c2ccccc2)C(=O)C1=O [Piperacillin],Flip time,"Piperacillin 96 ug/mL blood, CPD human blood, 750 cfu/5 mL",0.62 days
same,Flip time,"Piperacillin 96 ug/mL blood, CPD human blood, 5000 cfu/5 mL",0.57 days
same,Flip time,"Piperacillin 96 ug/mL blood, defibrinated horse blood, 5000 cfu/5 ml",0.78 days
same,Flip time,"Piperacillin 96 ug/mL blood, defibrinated horse blood, 50000 cfu/5 ml",0.65 days
same,Flip time,"S. aureus spike dil 10-3, Piperacillin 96 ug/ml human blood, SA bottle",0.57 days
same,Flip time,"S. aureus spike dil 10-4, Piperacillin 96 ug/ml human blood, SA bottle",0.62 days
same,Flip time in Days,"Control (no bead rescue), Piperacillin 96 ug/mL blood, CPD human blood, 750 cfu/5 mL",Neg
same,Flip time in Days,"Control (no bead rescue), Piperacillin 96 ug/mL blood, CPD human blood, 5000 cfu/5 mL",Neg
same,Flip time in Days,"Control (no bead rescue), Piperacillin 96 ug/mL blood, defibrinated horse blood, 5000 cfu/5 ml",Neg
same,Flip time in Days,"Control (no bead rescue), Piperacillin 96 ug/mL blood, defibrinated horse blood, 50000 cfu/5 ml",Neg
same,Flip time in hours/mins,"Control (no bead rescue), S. aureus spike dil 10-3, Piperacillin 96 ug/ml human blood, SA bottle",Negative at 120 h
same,Flip time in hours/mins,"Control (no bead rescue), S. aureus spike dil 10-4, Piperacillin 96 ug/ml human blood, SA bottle",Negative at 120 h
same,Flip time in Days,"No bead rescue Control BC, Piperacillin 96 ug/mL blood, 10000 cfu/5 mL",Neg
same,Flip time in Days,"No bead rescue Control BC, Piperacillin 96 ug/mL blood, 50000 cfu/5 mL",Neg
same,Time to positivity in days,"Piperacillin 96 ug/mL blood, Control (no beads)",Neg
same,Time to positivity in days,"Piperacillin 96 ug/mL blood, with magnetic beads in the bottle",Neg
